From article PMC8523698, “Preclinical characterization of an intravenous coronavirus 3CL protease inhibitor for the potential treatment of COVID19” (Nature Communications, 2021)
Converted amounts (≈) assume the structure as drawn. “And” between values parts separate entries of the source, which are not always exact repeats. Equal entries are not always repeated.

How the values were obtained:
CYP2D6 = CYP2D6 (Homo sapiens, UniProt P10635); assay: Reversible CYP inhibition in human liver microsomes
[1] = Plasma protein binding by equilibrium dialysis; conditions: for fraction unbound at 6 h, 5 uM / fraction unbound at 6 h: plasma
[2] = In vitro micronucleus formation; format: cell-based
[3] = Rat pharmacokinetic study; conditions: 2 mg/kg; for AUC(0-inf) / clearance / half-life / Vd: male, Wistar-Hannover, rat, plasma, iv; for AUC(0-inf): AUCinf; for Vd: Vdss
[4] = Mean, PF-00835231 active dosed 2mg/kg intravenous
[5] = PF-00835231 active dosed 2mg/kg intravenous, individual rats

Sequence of CYP2D6 (P10635 whole entry): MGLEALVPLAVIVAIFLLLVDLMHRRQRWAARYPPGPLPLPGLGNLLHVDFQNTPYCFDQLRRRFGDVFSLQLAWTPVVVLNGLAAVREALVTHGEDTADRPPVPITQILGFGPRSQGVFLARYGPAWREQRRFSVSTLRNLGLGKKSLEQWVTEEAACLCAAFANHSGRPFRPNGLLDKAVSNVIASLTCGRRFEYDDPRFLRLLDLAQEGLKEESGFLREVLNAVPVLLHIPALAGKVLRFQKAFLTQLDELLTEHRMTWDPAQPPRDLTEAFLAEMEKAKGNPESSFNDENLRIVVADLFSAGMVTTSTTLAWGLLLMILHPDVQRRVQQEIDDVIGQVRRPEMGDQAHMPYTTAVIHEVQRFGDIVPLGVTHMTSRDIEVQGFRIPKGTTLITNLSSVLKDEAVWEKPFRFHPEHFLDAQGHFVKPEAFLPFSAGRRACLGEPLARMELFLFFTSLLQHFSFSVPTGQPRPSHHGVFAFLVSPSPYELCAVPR

## COc1cccc2[nH]c(C(=O)N[C@@H](CC(C)C)C(=O)N[C@@H](C[C@@H]3CCNC3=O)C(=O)CO)cc12 [PF-00835231]
CYP2D6; CYP 2D6, 0.1 µM, 30-Minute Preincubation, 0.1 µM
  Percent of Control Activity: 92.9% and 101.4%
CYP2D6; CYP 2D6, 0.1 µM, Zero-Minute Preincubation, 0.1 µM
  Percent of Control Activity: 87.8% and 108.7%
CYP2D6; CYP 2D6, 0.214 µM, 30-Minute Preincubation, 0.214 µM
  Percent of Control Activity: 106.1%
CYP2D6; CYP 2D6, 0.214 µM, Zero-Minute Preincubation, 0.214 µM
  Percent of Control Activity: 101.0% and 100.2%
CYP2D6; CYP 2D6, 0.979 µM, 30-Minute Preincubation, 0.979 µM
  Percent of Control Activity: 107.3% and 99.0%
CYP2D6; CYP 2D6, 0.979 µM, Zero-Minute Preincubation, 0.979 µM
  Percent of Control Activity: 96.4% and 103.2%
CYP2D6; CYP 2D6, 2.09 µM, 30-Minute Preincubation, 2.09 µM
  Percent of Control Activity: 102.6% and 103.8%
CYP2D6; CYP 2D6, 2.09 µM, Zero-Minute Preincubation, 2.09 µM
  Percent of Control Activity: 96.1% and 107.2%
CYP2D6; CYP 2D6, 4.48 µM, 30-Minute Preincubation, 4.48 µM
  Percent of Control Activity: 102.2% and 99.7%
CYP2D6; CYP 2D6, 4.48 µM, Zero-Minute Preincubation, 4.48 µM
  Percent of Control Activity: 105.0% and 106.1%
CYP2D6; CYP 2D6, 20.5 µM, 30-Minute Preincubation, 20.5 µM
  Percent of Control Activity: 113.8% and 117.9%
CYP2D6; CYP 2D6, 20.5 µM, Zero-Minute Preincubation, 20.5 µM
  Percent of Control Activity: 108.8%
CYP2D6; CYP 2D6, 43.8 µM, 30-Minute Preincubation, 43.8 µM
  Percent of Control Activity: 122.8% and 114.4%
CYP2D6; CYP 2D6, 43.8 µM, Zero-Minute Preincubation, 43.8 µM
  Percent of Control Activity: 99.1% and 109.2%
CYP2D6; CYP 2D6, 93.5 µM, 30-Minute Preincubation, 93.5 µM
  Percent of Control Activity: 122.0% and 119.6%
CYP2D6; CYP 2D6, 93.5 µM, Zero-Minute Preincubation, 93.5 µM
  Percent of Control Activity: 100.2%
CYP2D6; CYP 2D6, 200 µM, 30-Minute Preincubation, 200 µM
  Percent of Control Activity: 102.0% and 91.1%
CYP2D6; CYP 2D6, 200 µM, Zero-Minute Preincubation, 200 µM
  Percent of Control Activity: 73.5% and 82.2%
CYP2D6; human, microsomes, pH 7.4
  IC50: > 200 µM
CYP2D6; human, microsomes, pH 7.4, Percent of Control Activity, CYP 2D6, 0.1 µM, 30-Minute Preincubation
  activity at 0.1 µM: 103%
CYP2D6; human, microsomes, pH 7.4, Percent of Control Activity, CYP 2D6, 0.214 µM, 30-Minute Preincubation
  activity at 0.214 µM: 102%
CYP2D6; human, microsomes, pH 7.4, Percent of Control Activity, CYP 2D6, 0.214 µM, Zero-Minute Preincubation
  activity at 0.214 µM: 98.6%
CYP2D6; human, microsomes, pH 7.4, Percent of Control Activity, CYP 2D6, 0.979 µM, 30-Minute Preincubation
  activity at 0.979 µM: 104%
CYP2D6; human, microsomes, pH 7.4, Percent of Control Activity, CYP 2D6, 0.979 µM, Zero-Minute Preincubation
  activity at 0.979 µM: 97.7%
CYP2D6; human, microsomes, pH 7.4, Percent of Control Activity, CYP 2D6, 2.09 µM, 30-Minute Preincubation
  activity at 2.09 µM: 104%
CYP2D6; human, microsomes, pH 7.4, Percent of Control Activity, CYP 2D6, 2.09 µM, Zero-Minute Preincubation
  activity at 2.09 µM: 99.9%
CYP2D6; human, microsomes, pH 7.4, Percent of Control Activity, CYP 2D6, 4.48 µM, 30-Minute Preincubation
  activity at 4.48 µM: 109%
CYP2D6; human, microsomes, pH 7.4, Percent of Control Activity, CYP 2D6, 4.48 µM, Zero-Minute Preincubation
  activity at 4.48 µM: 97.2%
CYP2D6; human, microsomes, pH 7.4, Percent of Control Activity, CYP 2D6, 20.5 µM, 30-Minute Preincubation
  activity at 20.5 µM: 118%
CYP2D6; human, microsomes, pH 7.4, Percent of Control Activity, CYP 2D6, 20.5 µM, Zero-Minute Preincubation
  activity at 20.5 µM: 97.6%
CYP2D6; human, microsomes, pH 7.4, Percent of Control Activity, CYP 2D6, 43.8 µM, 30-Minute Preincubation
  activity at 43.8 µM: 119%
CYP2D6; human, microsomes, pH 7.4, Percent of Control Activity, CYP 2D6, 43.8 µM, Zero-Minute Preincubation
  activity at 43.8 µM: 101%
CYP2D6; human, microsomes, pH 7.4, Percent of Control Activity, CYP 2D6, 93.5 µM, 30-Minute Preincubation
  activity at 93.5 µM: 120%
CYP2D6; human, microsomes, pH 7.4, Percent of Control Activity, CYP 2D6, 93.5 µM, Zero-Minute Preincubation
  activity at 93.5 µM: 91.9%
CYP2D6; human, microsomes, pH 7.4, Percent of Control Activity, CYP 2D6, 200 µM, 30-Minute Preincubation
  activity at 200 µM: 95.7%
CYP2D6; human, microsomes, pH 7.4, Percent of Control Activity, CYP 2D6, 200 µM, Zero-Minute Preincubation
  activity at 200 µM: 78.8%
[1]; Monkey Cynomologous plasma, 5.0 uM, replicates Day 1-3
  Individual fraction unbound: 0.429 and 0.445 and 0.467 and 0.489 and 0.396 and 0.428 and 0.46 and 0.501 and 0.390
[1]; cynomolgus monkey, pH 7.4, Individual fraction unbound, Monkey Cynomologous plasma, 5.0 uM, replicates Day 1-3
  fraction unbound at 6 h, 5 uM: 0.44
[1]; monkey, pH 7.4, Fraction unbound, Geomean, Monkey plasma, 5.0 uM, n 12
  fraction unbound at 6 h, 5 uM: 0.441
[1]; monkey, pH 7.4, Plasma fu, Vdss input
  fraction unbound at 6 h: 0.441
[1]; monkey, pH 7.4, Unbound fraction fu (%CV), monkey plasma
  fraction unbound at 6 h: 0.441
[1]; monkey, pH 7.4, fraction unbound Geomean, monkey plasma, 5.0 uM, n=12
  fraction unbound at 6 h, 5 uM: 0.441
Solubility measurement; deionized water and pH buffers
  solubility at 48 h: < 100 µg/mL
Solubility measurement; standard solubilizing excipients, aqueous with cosolvent or surfactant or cyclodextrin
  solubility: 500 µg/mL (≈ 1060 µM)
[2]
  micronuclei formation: did not induce micronuclei formation
[3]; Rat, 2mg/kg intravenous, individual animals
  Vdss: 1.02 L/kg and 0.58 L/kg
[3]; [4]
  AUC(0-inf): 1250 ng·h/mL
  clearance: 27 mL/min/kg
  Vd: 0.746 L/kg
[3]; [5]
  AUC(0-inf): 1230 ng·h/mL
  clearance: 27.1 mL/min/kg
  Vd: 0.637 L/kg
[3]; Half life, Mean, PF-00835231 active dosed 2mg/kg intravenous
  half-life: 43.1 min
[3]; Half life, PF-00835231 active dosed 2mg/kg intravenous, individual rats
  half-life: 39.2 min
[3]; Terminal T1/2, rat IV, PF-07304814 […] (n=2, range), PF-00835231 2mg/kg (n=3, ± SD)
  half-life: < 120 min
[3]; 2mg/kg intravenous, individual animals
  Vd: 0.637 L/kg
[3]; Mean, 2mg/kg intravenous
  Vd: 0.746 L/kg
[3]; Vdss input
  Vd: 0.75 L/kg
